What follows are molecules tested against T1, HGFR (Homo sapiens, UniProt P08581) (assay: HGFR continuous-coupled spectrophotometric assay). Conditions: at 50 nM; Table 5, library procedure 40; read-out: % inhibition (percent c-MET inhibition).
T1 construct: purchased Upstate 14-526
T1 sequence (P08581 974-1390 limits assumed): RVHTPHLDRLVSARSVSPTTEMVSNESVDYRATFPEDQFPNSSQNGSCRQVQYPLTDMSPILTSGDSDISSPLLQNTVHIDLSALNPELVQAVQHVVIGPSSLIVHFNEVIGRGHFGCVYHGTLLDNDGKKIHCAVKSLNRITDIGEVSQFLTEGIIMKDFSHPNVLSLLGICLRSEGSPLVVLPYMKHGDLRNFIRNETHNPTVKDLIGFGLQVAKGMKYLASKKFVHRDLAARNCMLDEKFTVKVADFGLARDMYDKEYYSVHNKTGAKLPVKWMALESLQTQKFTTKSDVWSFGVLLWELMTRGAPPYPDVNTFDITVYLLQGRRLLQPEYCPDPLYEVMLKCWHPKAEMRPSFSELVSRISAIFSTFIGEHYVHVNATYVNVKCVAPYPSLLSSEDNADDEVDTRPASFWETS
Type: biochemical
`CCN(Cc1ccncc1)C(=O)c1ccc(-c2cnc(N)c(OC(C)c3c(Cl)ccc(F)c3Cl)c2)cc1` [Example L-41] was tested, and the inhibition at 0.05 µM was 84%. Molecule `CCN(CC)CCN(C)C(=O)c1ccc(-c2cnc(N)c(OC(C)c3c(Cl)ccc(F)c3Cl)c2)cc1` [Example L-43] has an inhibition at 0.05 µM of 85%. `CCN(CC)C(=O)C1CCCN(C(=O)c2ccc(-c3cnc(N)c(OC(C)c4c(Cl)ccc(F)c4Cl)c3)cc2)C1` [Example L-44] gave an inhibition at 0.05 µM of 55%. With `CC(Oc1cc(-c2ccc(C(=O)N3CCN(CC(=O)N4CCCC4)CC3)cc2)cnc1N)c1c(Cl)ccc(F)c1Cl` [Example L-46] the inhibition at 0.05 µM was 78%. Work on `C[C@H](Oc1cc(-c2ccc(C(=O)N3CCCC[C@@H]3CCO)cc2)cnc1N)c1c(Cl)ccc(F)c1Cl` [Example L-47] yielded an inhibition at 0.05 µM of 83%. In the case of `CC(Oc1cc(-c2ccc(C(=O)N3CCN(CCCO)CC3)cc2)cnc1N)c1c(Cl)ccc(F)c1Cl` [Example L-49], the inhibition at 0.05 µM is reported as 74%. For `CC(Oc1cc(-c2ccc(C(=O)NCC(C)(C)CO)cc2)cnc1N)c1c(Cl)ccc(F)c1Cl` [Example L-50], the inhibition at 0.05 µM was 73%. `C[C@H](Oc1cc(-c2ccc(C(=O)N[C@H]3CC[C@H](O)CC3)cc2)cnc1N)c1c(Cl)ccc(F)c1Cl` [Example L-51] gave an inhibition at 0.05 µM of 73%. For `CCOC(=O)N1CCC(NC(=O)c2ccc(-c3cnc(N)c(OC(C)c4c(Cl)ccc(F)c4Cl)c3)cc2)CC1` [Example L-52], the inhibition at 0.05 µM was 66%. For `COCCCNC(=O)c1ccc(-c2cnc(N)c(OC(C)c3c(Cl)ccc(F)c3Cl)c2)cc1` [Example L-54], the inhibition at 0.05 µM was 95%. Work on `CC(O)CNC(=O)c1ccc(-c2cnc(N)c(OC(C)c3c(Cl)ccc(F)c3Cl)c2)cc1` [Example L-56] yielded an inhibition at 0.05 µM of 83%. In the case of `Cc1cnc(CNC(=O)c2ccc(-c3cnc(N)c(OC(C)c4c(Cl)ccc(F)c4Cl)c3)cc2)cn1` [Example L-57], the inhibition at 0.05 µM is reported as 76%. `CC(Oc1cc(-c2ccc(C(=O)NCC(F)(F)F)cc2)cnc1N)c1c(Cl)ccc(F)c1Cl` [Example L-58] gave an inhibition at 0.05 µM of 78%. `CC(Oc1cc(-c2ccc(C(=O)NCC3(O)CCCCC3)cc2)cnc1N)c1c(Cl)ccc(F)c1Cl` [Example L-59] showed an inhibition at 0.05 µM of 81%. Work on `CC(Oc1cc(-c2ccc(C(=O)NCCCN3CCCC3=O)cc2)cnc1N)c1c(Cl)ccc(F)c1Cl` [Example L-60] yielded an inhibition at 0.05 µM of 83%. `CC(Oc1cc(-c2ccc(C(=O)NCCc3ccc(O)cc3)cc2)cnc1N)c1c(Cl)ccc(F)c1Cl` [Example L-61] showed an inhibition at 0.05 µM of 71%. Molecule `CCN(CCO)C(=O)c1ccc(-c2cnc(N)c(OC(C)c3c(Cl)ccc(F)c3Cl)c2)cc1` [Example L-62] has an inhibition at 0.05 µM of 94%. For `CC(Oc1cc(-c2ccc(C(=O)NCCN(C)C)cc2)cnc1N)c1c(Cl)ccc(F)c1Cl` [Example L-64], the inhibition at 0.05 µM was 85%. Molecule `CCN1CC(NC(=O)c2ccc(-c3cnc(N)c(OC(C)c4c(Cl)ccc(F)c4Cl)c3)cc2)CN1CC` [Example L-65] has an inhibition at 0.05 µM of 79%. Molecule `CCCNC(=O)c1ccc(-c2cnc(N)c(OC(C)c3c(Cl)ccc(F)c3Cl)c2)cc1` [Example L-66] has an inhibition at 0.05 µM of 73%. In the case of `CC(C)CCNC(=O)c1ccc(-c2cnc(N)c(OC(C)c3c(Cl)ccc(F)c3Cl)c2)cc1` [Example L-67], the inhibition at 0.05 µM is reported as 53%. Molecule `CCOC(=O)CN1CCN(C(=O)c2ccc(-c3cnc(N)c(OC(C)c4c(Cl)ccc(F)c4Cl)c3)cc2)CC1` [Example L-68] has an inhibition at 0.05 µM of 70%. `CC(Oc1cc(-c2ccc(C(=O)NCCc3c[nH]c4ccc(O)cc34)cc2)cnc1N)c1c(Cl)ccc(F)c1Cl` [Example L-69] was tested, and the inhibition at 0.05 µM was 66%. `CC(Oc1cc(-c2ccc(C(=O)NC3CCC3)cc2)cnc1N)c1c(Cl)ccc(F)c1Cl` [Example L-70] gave an inhibition at 0.05 µM of 71%. With `CC(Oc1cc(-c2ccc(C(=O)N(C)C3CCN(C)C3)cc2)cnc1N)c1c(Cl)ccc(F)c1Cl` [Example L-71] the inhibition at 0.05 µM was 92%. In the case of `CC(Oc1cc(-c2ccc(C(=O)NCC(C)(C)C)cc2)cnc1N)c1c(Cl)ccc(F)c1Cl` [Example L-72], the inhibition at 0.05 µM is reported as 62%. For `CC(Oc1cc(-c2ccc(C(=O)N3CCCCC3CN3CCCCC3)cc2)cnc1N)c1c(Cl)ccc(F)c1Cl` [Example L-73], the inhibition at 0.05 µM was 90%. `C[C@H](Oc1cc(-c2ccc(C(=O)NC3C[C@@H]3c3ccccc3)cc2)cnc1N)c1c(Cl)ccc(F)c1Cl` (stereo partly drawn) [Example L-74] was tested, and the inhibition at 0.05 µM was 65%. With `CC(Oc1cc(-c2ccc(C(=O)NCCc3c(Cl)cccc3Cl)cc2)cnc1N)c1c(Cl)ccc(F)c1Cl` [Example L-75] the inhibition at 0.05 µM was 53%. With `CC(Oc1cc(-c2ccc(C(=O)N(C)CCc3ccncc3)cc2)cnc1N)c1c(Cl)ccc(F)c1Cl` [Example L-76] the inhibition at 0.05 µM was 73%. `CC(Oc1cc(-c2ccc(C(=O)NCc3ccc(OC(F)(F)F)cc3)cc2)cnc1N)c1c(Cl)ccc(F)c1Cl` [Example L-77] showed an inhibition at 0.05 µM of 54%. Work on `CC(Oc1cc(-c2ccc(C(=O)N(C)CCC#N)cc2)cnc1N)c1c(Cl)ccc(F)c1Cl` [Example L-78] yielded an inhibition at 0.05 µM of 68%. `COCCNC(=O)c1ccc(-c2cnc(N)c(OC(C)c3c(Cl)ccc(F)c3Cl)c2)cc1` [Example L-79] was tested, and the inhibition at 0.05 µM was 73%. `C[C@H](Oc1cc(-c2ccc(C(=O)N[C@@H](C)C3CCCCC3)cc2)cnc1N)c1c(Cl)ccc(F)c1Cl` [Example L-80] showed an inhibition at 0.05 µM of 60%. Molecule `CC(Oc1cc(-c2ccc(C(=O)NC3(CO)CCCC3)cc2)cnc1N)c1c(Cl)ccc(F)c1Cl` [Example L-81] has an inhibition at 0.05 µM of 67%. In the case of `CC(C)[C@@H](CO)NC(=O)c1ccc(-c2cnc(N)c(O[C@@H](C)c3c(Cl)ccc(F)c3Cl)c2)cc1` [Example L-82], the inhibition at 0.05 µM is reported as 74%. `C[C@H](Oc1cc(-c2ccc(C(=O)N[C@H](C)C3CCCCC3)cc2)cnc1N)c1c(Cl)ccc(F)c1Cl` [Example L-83] was tested, and the inhibition at 0.05 µM was 54%. With `C[C@H](Oc1cc(-c2ccc(C(=O)NC[C@@H]3CCCC[C@H]3O)cc2)cnc1N)c1c(Cl)ccc(F)c1Cl` [Example L-84] the inhibition at 0.05 µM was 67%. `CCOC(=O)C1CCN(C(=O)c2ccc(-c3cnc(N)c(OC(C)c4c(Cl)ccc(F)c4Cl)c3)cc2)CC1` [Example L-86] was tested, and the inhibition at 0.05 µM was 57%. For `CC(Oc1cc(-c2ccc(C(=O)NC3CCCCC3)cc2)cnc1N)c1c(Cl)ccc(F)c1Cl` [Example L-87], the inhibition at 0.05 µM was 56%. `CC(Oc1cc(-c2ccc(C(=O)NCCCN3CCCC3)cc2)cnc1N)c1c(Cl)ccc(F)c1Cl` [Example L-88] was tested, and the inhibition at 0.05 µM was 90%. With `CC(Oc1cc(-c2ccc(C(=O)N3CCN(c4ccncc4)CC3)cc2)cnc1N)c1c(Cl)ccc(F)c1Cl` [Example L-89] the inhibition at 0.05 µM was 96%. For `CC(Oc1cc(-c2ccc(C(=O)N3CCN(CCN(C)C)CC3)cc2)cnc1N)c1c(Cl)ccc(F)c1Cl` [Example L-90], the inhibition at 0.05 µM was 85%. For `C[C@H](Oc1cc(-c2ccc(C(=O)NC[C@H](O)c3ccccc3)cc2)cnc1N)c1c(Cl)ccc(F)c1Cl` [Example L-91], the inhibition at 0.05 µM was 69%. For `COc1cc(CCNC(=O)c2ccc(-c3cnc(N)c(OC(C)c4c(Cl)ccc(F)c4Cl)c3)cc2)ccc1O` [Example L-92], the inhibition at 0.05 µM was 64%. In the case of `CC(NC(=O)c1ccc(-c2cnc(N)c(OC(C)c3c(Cl)ccc(F)c3Cl)c2)cc1)c1ccc(O)cc1` [Example L-93], the inhibition at 0.05 µM is reported as 62%. Molecule `CC(Oc1cc(-c2ccc(C(=O)NCCc3cccc(C(F)(F)F)c3)cc2)cnc1N)c1c(Cl)ccc(F)c1Cl` [Example L-94] has an inhibition at 0.05 µM of 51%. `CC(Oc1cc(-c2ccc(C(=O)NC[C@@H]3CCCO3)cc2)cnc1N)c1c(Cl)ccc(F)c1Cl` (stereo partly drawn) [Example L-96] gave an inhibition at 0.05 µM of 61%. Work on `C[C@H](Oc1cc(-c2ccc(C(=O)NC[C@H]3CCCO3)cc2)cnc1N)c1c(Cl)ccc(F)c1Cl` [Example L-97] yielded an inhibition at 0.05 µM of 60%.
